“Also recorded” adds a separate entry of the source. Counter-ions that a name gives are not always drawn.

Assay type in all cases: physicochemical
A short description of series [1]: Chemical stability tests on storage under humidity and temperature conditions. As to the method: Chemical stability tests were carried out on aliquots of the salt form of interest by placing a accurately weighed sample of the salt form of the compound of Formula I into a polyethylene bag. The bagged samples were enclosed in fiberboard tubes fitted with metal caps which were stored under the indicated conditions of humidity and temperature for the indicated time. Analysis was carried out by dissolving the contents of a vial and quantifying the amount of solute utilizing HPLC analysis. Where noted the aliquots were stored in capped amber vials under the conditions noted instead of polyethylene bags.
(§1) The stability of the crystalline monohydrate hydrochloride salt form of the compound of Formula I was also examined using the procedure described above for samples contained in polyethylene bags by exposing samples to the following conditions: (a) 60% relative humidity (RH) at 4° C. for twelve months, at 25° C. for eighteen months, and at 50° C. for one month; (b) 40° C. and 75% relative humidity (RH) for twelve weeks, and (c) 70° C. at ambient humidity for one hour. Samples of the crystalline monohydrate hydrochloride form I salt were also tested for one cycle of ICH UV/Vis light stress conditions.
(§2) The stability of the crystalline tosylate form I salt form of the compound of Formula I was examined by placing weighed amounts of the salt into clear glass vials and storing them under the indicated conditions. Periodically a vial was removed and the contents examined for decomposition of the compound. Accordingly, samples of the tosylate form I salt were exposed to the following conditions: (a) 40° C. and 75% relative humidity (RH) for four weeks; (b) 50° C. and ambient relative humidity for four weeks; and (c) 70° C. for one hour. Samples of the tosylate form I salt were separately tested for one cycle of ICH UV/Vis light stress conditions.

A short description of series [2]: Solubility tests (equilibrated slurry, HPLC quantification). Particulars: for aqueous solubility: water, pH of 4 or less (more acidic). As to the method:
Solubility tests were conducted by placing an excess of the compound in an aliquot of the solvent of interest and allowing the slurry to equilibrate under the selected temperature conditions (typically ambient). When the solvent was water, pH was adjusted to the desired value with hydrochloric acid and sodium hydroxide. When the slurry mixture had equilibrated, the excess solids were centrifuged (water) or filtered (all other solvents) from the supernatant and the amount of compound which had been dissolved was quantified utilizing HPLC analysis of diluted aliquots of the supernatant liquid. Pharmaceutical grade solvents were employed.

The nature of series [3]: ICH UV/Vis light stress conditions. Particulars: one cycle of ICH UV/Vis light stress conditions. The protocol:
as §1, §2

Where [4] appears, read: solvent Ethanol, ambient temperature.
Where [5] appears, read: solvent Glycerin, ambient temperature.
Where [6] appears, read: solvent PEG 400, ambient temperature.
Where [7] appears, read: solvent Propylene Glycol, ambient temperature.

Regarding `C[C@@H](OC[C@@]1(c2ccccc2)CC[C@]2(CCC(=O)N2)CN1)c1cc(C(F)(F)F)cc(C(F)(F)F)c1` [anhydrous form I salt, (5S,8S)-8-[{(1R)-1-(3,5-Bis-(trifluoromethyl)phenyl)-ethoxy}-methyl]-8-phenyl-1,7-diazaspiro[4.5]decan-2-one], the “form change on storage” value in series [1] (storage under ambient conditions of temperature and humidity after dehydration) is on record as “returns the crystals to the monohydrate form”.

For `C[C@@H](OC[C@@]1(c2ccccc2)CC[C@]2(CCC(=O)N2)CN1)c1cc(C(F)(F)F)cc(C(F)(F)F)c1` [monohydrate hydrochloride form I salt, (5S,8S)-8-[{(1R)-1-(3,5-Bis-(trifluoromethyl)phenyl)-ethoxy}-methyl]-8-phenyl-1,7-diazaspiro[4.5]decan-2-one], the “Solubility (mg/ml, ambient conditions)” value is 185 mg/mL in series [2] (setting [4]), 16 mg/mL in series [2] (setting [5]), 20 mg/mL in series [2] (setting [6]) and 160 mg/mL in series [2] (setting [7]). The aqueous solubility result in series [2] is reported as “at least 1.0 mg/ml”. Besides, the “temperature up to which the salt is stable” value in series [1] (70° C. at ambient humidity for one hour, polyethylene bags) was “about 70 °C”. Moreover, in series [1] (ambient temperature, about 5% to about 95% relative humidity), the “stability at ambient/room temperature over relative humidity range” value was “does not decompose or dehydrate; also recorded: stable at room temperature”. For the same molecule, the “stability under light stress” value in series [3] is listed as “stable under light stress conditions”.

For `C[C@@H](OC[C@@]1(c2ccccc2)CC[C@]2(CCC(=O)N2)CN1)c1cc(C(F)(F)F)cc(C(F)(F)F)c1` [tosylate form I salt, (5S,8S)-8-[{(1R)-1-(3,5-Bis-(trifluoromethyl)phenyl)-ethoxy}-methyl]-8-phenyl-1,7-diazaspiro[4.5]decan-2-one], the “Solubility (mg/ml, ambient conditions)” value in series [2] (setting [4]) came out at 75 mg/mL; in series [2] (setting [5]) it was 2.5 mg/mL; in series [2] (setting [6]), 1.8 mg/mL; in series [2] (setting [7]), 20 mg/mL. In addition, the aqueous solubility result in series [2] was “at least 0.38 mg/ml”. Besides, the “stability under all tested conditions” value in series [1] (clear glass vials, 40° C./75% RH four weeks, 50° C./ambient RH four weeks, 70° C. one hour, one cycle ICH UV/Vis light stress) is “stable under all tested conditions”.

(Values after patent US8470842B2, “Hydrochloride salts of 8-[{1-(3,5-Bis-trifluoromethyl)phenyl)-ethoxy}-methyl]-8-phenyl-1,7-diaza-spiro[4.5]decan-2-one and preparation process therefor” (OPKO Health, Inc., priority 2006, dated 2013).)
